Measurements reported in patent US20250066335A1, “POLYSUBSTITUTED 4-HYDROXYPYRIDINE AND 4-HYDROXYQUINOLINE DERIVATIVES AS GPR84 ANTAGONISTS” (UNIVERSITY OF COPENHAGEN, priority 2021, published 2025).
Counter-ions that a name gives are not always drawn.

Target: T1, GPR84 (Homo sapiens, UniProt Q9NQS5)
T1 construct: expressed in transfected cells; host or cells: HTLA cells (HEK293 line stably expressing a tTA-dependent luciferase reporter and a β-arrestin2-TEV fusion gene), transiently transfected with PEI
T1 sequence (Q9NQS5 whole entry, the tested form may be a part): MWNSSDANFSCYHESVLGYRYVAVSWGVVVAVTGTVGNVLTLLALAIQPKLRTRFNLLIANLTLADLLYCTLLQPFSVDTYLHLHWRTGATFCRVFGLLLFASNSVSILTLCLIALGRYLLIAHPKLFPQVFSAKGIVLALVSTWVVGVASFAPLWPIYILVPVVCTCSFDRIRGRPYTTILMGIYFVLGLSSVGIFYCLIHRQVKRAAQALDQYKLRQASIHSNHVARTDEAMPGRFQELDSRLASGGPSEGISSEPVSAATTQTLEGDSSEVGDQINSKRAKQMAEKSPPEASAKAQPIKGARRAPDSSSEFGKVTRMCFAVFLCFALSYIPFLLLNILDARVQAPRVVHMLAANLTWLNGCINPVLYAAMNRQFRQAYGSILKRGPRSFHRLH
Test: PRESTO-Tango β-arrestin2 recruitment assay, GPR84 antagonistic activity
Format: cell-based
Settings: antagonist activity in the Presto-TANGO assay; inhibition of the response from the agonist ZQ-16 (100 nM); HTLA cells
Procedure: PRESTO-Tango β-arrestin recruitment assay (W.K. Kroeze et al., 2015). HTLA cells (a HEK293 cell line stably expressing a tTA-dependent luciferase reporter and a β-arrestin2-TEV fusion gene) were maintained in Dulbecco's Modified Eagle's Medium (DMEM) supplemented with 10% Fetal Bovine Serum (dFBS), 100 U/mL penicillin and 100 μg/mL streptomycin, 2 μg/mL puromycin and 100 μg/mL hygromycin B in a humidified atmosphere at 37° C. in 5% CO2. For transfection, cells were plated at 9×10^6 to 10×10^6 cells per 15-cm cell-culture dish (day 1). The following day (day 2), cells were transfected by adding 5 μg DNA and 15 μg polyethylenimine (PEI) diluted in 1 mL Opti-MEM (Reduced Serum Medium supplied by ThermoFisher). On day 3, transfected cells were transferred at 25000 cells per well in 40 μl of medium into poly-l-lysine-coated and rinsed 384-well white, clear-bottomed cell-culture plates (Greiner Bio-One). On day 4, dilutions of the ligands to be tested were prepared in 1% dFBS DMEM and 10 μL were added to each well. On day 5, 20 μl per well of Bright-Glo solution (Promega) diluted 10-fold in assay buffer (Hanks' Balanced Salt Solution [HBSS], 20 mM HEPES, 1 mM CaCl2, 1 mM MgCl2, pH adjusted to 7.4 by 5 M NaOH) was added to each well. After incubation for 20 min at room temperature, luminescence was counted in an Enspire luminescence counter at 384 nm. Results in the form of relative luminescence units (RLU) were exported into Excel spreadsheets, and GraphPad Prism was used for analysis of data. To measure constitutive activity, no ligand was added on day 4.
The GPR84 antagonistic activity of the compounds was determined using the PRESTO-Tango β-arrestin2 recruitment assay (Assay I, see assays above), from which the concentration of each compound required for 50% inhibition (IC50) of the response from the agonist ZQ-16 (100 nM) was determined. The antagonistic activity for each compound is given in Table 1 as the pIC50, which is the negative log of the IC50 value when converted to molar.

Row | SMILES | IC50
1 | CCc1c(O)cc(OCC2COCCO2)nc1CCc1ccc(OCCN)cc1 (stereo not shown) [Example 45, 6-((1,4-Dioxan-2-yl)methoxy)-2-(4-(2-aminoethoxy)phenethyl)-3-ethylpyridin-4-ol hydrochloride] | 2.34 nM
2 | CCOc1ccc(-c2ccc3c(O)cc(OCC4CCCCO4)nc3c2)cc1 (stereo not shown) [Example 5, 7-(4-Ethoxyphenyl)-2-((tetrahydro-2H-pyran-2-yl)methoxy)quinolin-4-ol] | 724 nM
3 | CCCc1ccc(CCc2nc(OCC3COCCO3)cc(O)c2C)cc1 (stereo not shown) [Example 22, 6-((1,4-Dioxan-2-yl)methoxy)-3-methyl-2-(4-propylphenethyl)pyridin-4-ol] | 3.02 nM
4 | CCc1c(O)cc(OCC2COCCO2)nc1CCc1ccc(O)cc1 (stereo not shown) [Example 43, 6-((1,4-dioxan-2-yl)methoxy)-3-ethyl-2-(4-hydroxyphenethyl)pyridin-4-ol] | 1.07 nM
5 | CCCc1ccc(CCc2nc(OCC3CCCCO3)cc(O)c2-c2ccccc2C)cc1 (stereo not shown) [Example 9, 2-(4-Propylphenethyl)-6-((tetrahydro-2H-pyran-2-yl)methoxy)-3-(o-tolyl)pyridin-4-ol] | 389 nM
6 | CCc1c(O)cc(OC[C@@H]2COCCO2)nc1CCc1ccc(OC)c(C#N)c1 [Example 54, (S)-5-(2-(6-((1,4-dioxan-2-yl)methoxy)-3-ethyl-4-hydroxypyridin-2-yl)ethyl)-2-methoxybenzonitrile] | 1.55 nM
7 | CCOc1ncc(CCc2nc(OCC3COCCO3)cc(O)c2CC)cc1F (stereo not shown) [Example 50, 6-((1,4-Dioxan-2-yl)methoxy)-2-(2-(6-ethoxy-5-fluoropyridin-3-yl)ethyl)-3-ethylpyridin-4-ol] | 1.29 nM
8 | CCc1c(O)cc(OC[C@@H]2COCCO2)nc1CCc1ccc(OC)c(OC)c1 [Example 52, (S)-6-((1,4-dioxan-2-yl)methoxy)-2-(3,4-dimethoxyphenethyl)-3-ethylpyridin-4-ol] | 1.26 nM
9 | CCCc1ccc(CCc2nc(OCC3CCCCO3)cc(O)c2-c2ccc(C(=O)OC)cc2)cc1 (stereo not shown) [Example 20, Methyl 4-(4-hydroxy-2-(4-propylphenethyl)-6-((tetrahydro-2H-pyran-2-yl)methoxy)pyridin-3-yl)benzoate] | 145 nM

The next molecules have a lower IC50 than those just listed; values first:

Row | IC50 | SMILES
10 | 0.389 nM | CCOc1ccc(CCc2nc(OCC3COCCO3)cc(O)c2CC)cc1 (stereo not shown) [Example 26, 6-((1,4-Dioxan-2-yl)methoxy)-2-(4-ethoxyphenethyl)-3-ethylpyridin-4-ol]
11 | 0.302 nM | CCc1c(O)cc(OCC2COCCO2)nc1CCc1ccc(OCCCNC(=O)OC(C)(C)C)cc1 (stereo not shown) [Example 33, tert-Butyl (3-(4-(2-(6-((1,4-dioxan-2-yl)methoxy)-3-ethyl-4-hydroxypyridin-2-yl)ethyl)phenoxy)propyl)carbamate]
12 | 0.832 nM | CCc1c(O)cc(OCC2COCCO2)nc1CCc1ccc(OCCCN)cc1 (stereo not shown) [Example 46, 6-((1,4-Dioxan-2-yl)methoxy)-2-(4-(3-aminopropoxy)phenethyl)-3-ethylpyridin-4-ol hydrochloride]
13 | 0.282 nM | Cc1c(O)cc(OCC2COCCO2)nc1CCc1ccc(OCCNC(=O)OC(C)(C)C)cc1 (stereo not shown) [Example 27, Tert-butyl (2-(4-(2-(6-((1,4-dioxan-2-yl)methoxy)-4-hydroxy-3-methylpyridin-2-yl)ethyl)phenoxy)ethyl)carbamate]
14 | 0.257 nM | CCOC(=O)CCCCOc1ccc(CCc2nc(OCC3COCCO3)cc(O)c2CC)cc1 (stereo not shown) [Example 36, Ethyl 5-(4-(2-(6-((1,4-dioxan-2-yl)methoxy)-3-ethyl-4-hydroxypyridin-2-yl)ethyl)phenoxy)pentanoate]
15 | 0.2 nM | CCc1c(O)cc(OCC2COCCO2)nc1CCc1ccc(OCCOc2ccccc2)cc1 (stereo not shown) [Example 38, 6-((1,4-Dioxan-2-yl)methoxy)-3-ethyl-2-(4-(2-phenoxyethoxy)phenethyl)pyridin-4-ol]
16 | 0.741 nM | CCc1c(O)cc(OCC2COCCO2)nc1CCc1ccc(OCCO)cc1 (stereo not shown) [Example 35, 6-((1,4-Dioxan-2-yl)methoxy)-3-ethyl-2-(4-(2-hydroxyethoxy)phenethyl)pyridin-4-ol]
